Measured values reported in patent publication US20090246773A1, “DIAGNOSTIC COMPOSITIONS AND TREATMENT METHODS FOR CONDITIONS INVOLVING TROPHOBLAST CELL DEATH, DIFFERENTIATION, INVASION AND/OR CELL FUSION AND TURNOVER” (Mount Sinai Hospital, priority 2006, published 2009).
Residues, ends and D or L forms follow the SMILES beside them. *: point of attachment. Cbz = O=C(OCc1ccccc1)*; CH2F = FC*

B1: transforming growth factor β3 (protein, UniProt P10600 301-412, looked up)
Transforming growth factor …: ALDTNYCFRNLEENCCVRPLYIDFRQDLGWKWVHEPKGYYANFCSGPCPYLRSADTTHSTVLGLYNTLNPEASASPCCVPQDLEPLTILYYVGRTPKVEQLSNMVVKSCKCS
notes: transforming growth factor β3 added to explant and cell cultures

Tests used:
[1] = tested on: Mcl-1 Cleavage in Human Villous Explants; test: Mcl-1 immunoblot of villous explants exposed to hypoxia-reoxygenation with caspase inhibitors; format: cell-based; conditions: for Mcl-1S amount: 100 μM inhibitor, relative to H/R and untreated tissues; for Mcl-1L cleavage induced by hypoxia-reoxygenation: human villous explants, summary statement
Protocol: Explant cultures were performed as previously described (Caniggia, 2000). Briefly, placental tissues (5-8 weeks of gestation, 15 sets) were placed in ice-cold PBS and processed within 2 hours of collection. Tissues were aseptically dissected to remove decidual tissue and fetal membranes. Small fragments of placental villi (25-45 mg wet weight) were teased apart, placed on Millicell-CM culture dish inserts (Millipore Corp., Bedford, Mass., USA) pre-coated with 0.15 mL of undiluted Matrigel (Collaborative Biomedical Products, Bedford, Mass., USA), and transferred to a 24-well culture dish. Explants were cultured in serum-free DMEM/F12 (Gibco BRL, Grand Island, N.Y., USA) supplemented with 100 μg/mL streptomycin, 100 U/mL penicillin, and incubated overnight at 37° C. in 5% CO2 in air to allow attachment. Explants were maintained in standard condition (5% CO2 in 95% air) or in an atmosphere of 3% O2/92% N2/5% CO2 for 48 hrs at 37° C. Explants from more than 10 different placentae in more than 15 separate experiments were used. A minimum of 3 explants per experimental condition was used at all times. Explants were exposed to hypoxia-reoxygenation (H/R) as previously described (Hung, 2002; Soleymanlou, 2005) in presence of 100 μM of the pan-caspase inhibitor z-VAD-fmk (BioMol, Plymouth Meeting, Pa.) or caspase-3-specific inhibitor z-DEVD-fmk (R&D Systems, Minneapolis, Minn.) both dissolved in DMSO (equivalent volume of DMSO in absence of inhibitors was used in control conditions).
Western blotting was performed as previously described (MacPhee, 2001). Fifty μg of total protein form placental tissue or cell line was subjected to 12% (wt/vol) SDS-PAGE. Membranes were probed at 4° C. overnight with a 1:1000 dilutions of primary antibodies:rabbit polyclonal Mtd antibody capable of recognizing all isoforms as previously reported (Soleymanlou, 2005); Mcl-1-specific rabbit polyclonal antibody (SC-819 clone S-19 from Santa Cruz Biotechnology, Santa Cruz, Calif.); specific cleaved caspase-3 (Asp175) (5Al) and cleaved caspase-8 (Asp374) rabbit polyclonal antibodies (Cell Signaling, Beverly, Mass.). For anti-Mtd and Mcl-1 antibodies, pre-immune serum and competing peptides were used as controls. A rabbit polyclonal antibody was generated against N-terminal amino acids (28-41) of syncytin (NM_014590) and pre-immune serum was used as control. After overnight incubation, membranes were washed with TBS/T and incubated for 60 minutes at room temperature with 1:5000 diluted horseradish peroxidase-conjugated anti-rabbit (Santa Cruz Biotechnology). Blots were exposed to chemiluminescent ECL-plus reagent (Amersham, Piscataway, N.J.). All blots were confirmed for equal protein loading at all time using ponceau staining.

villous explants [2] = test: EVT outgrowth of villous explants; format: cell-based, human; conditions: DMOG-treated explants vs. control explants at 20% O2
Protocol: (§1) Chorionic villous explant culture was performed as previously described (Caniggia, 2000). Briefly, placental tissues (5-8 weeks of gestation, 15 separate sets) were placed in ice-cold PBS and processed within 2 hours of collection. Tissues were aseptically dissected to remove decidual tissue and fetal membranes. Small fragments of placental villi (25-45 mg wet weight) were teased apart, placed on Millicell-CM culture dish inserts (Millipore Corp., Bedford, Mass., USA) pre-coated with 0.15 mL of undiluted Matrigel (Collaborative Biomedical Products, Bedford, Mass., USA), and transferred to a 24-well culture dish. Explants were cultured in serum-free DMEM/F12 (Gibco BRL, Grand Island, N.Y., USA) supplemented with 100 μg/mL streptomycin, 100 U/mL penicillin, and incubated overnight at 37° C. in 5% CO2 in air to allow attachment. Explants were maintained in standard condition (5% CO2 in 95% air) or in an atmosphere of 3% or 8% O2 (92% or 87% N2 and 5% CO2, respectively) for 72 hrs at 37° C. The morphological integrity and viability of villous explants and their EVT outgrowth and migration were monitored daily for up to 5 days as previously reported (Caniggia, 2000). Explants from more than 10 different placentae in more than 15 separate experiments were used. […]

[3] = tested on: sFlt-1 expression in first trimester placental explants; test: sFlt-1 protein immunohistochemistry in villous explants; format: cell-based, human; conditions: DMOG added to 20% O2 explants vs. 20% O2 without DMOG; IHC
Protocol: as §1, with “Explants were maintained in standard condition (5% CO2 in 95% air) or in an atmosphere of 3% or 8% O2 (92% or 87% N2 and 5% CO2, respectively) for 72 hrs at 37° C.” left out, “2000).” for “2000). Explants from more than 10 different placentae in more than 15 separate experiments were used.”
Paraffin sections were mounted on glass slides, dewaxed in xylene and rehydrated in descending ethanol gradient. […] Finally, avidin biotin complex (Vector Laboratories, Burlingame, Calif.) was applied for 1 hour and staining was detected with the diamino-benzidine chromogen after 5 minutes. […]

villous explants [4] = test: TUNEL assay of villous explants; format: cell-based, human; conditions: DMOG treatment or 3% O2 exposure of explants
Protocol: An in situ cell death detection kit was purchased from Amersham Biosciences, NJ, USA. Terminal deoxynucleotidyl transferase-dUTP-nick end labelling (TUNEL) assays were performed according to instructions provided by the manufacturer. Paraffin sections of tissue were dewaxed in xylene, rehydrated in descending grades of ethanol, and finally soaked in PBS. Tissue sections were pre-treated with Proteinase K (10 μg/mL) in PBS for 10 min, washed and then incubated in 3% hydrogen peroxide in methanol for 45 minutes. After washing in PBS, the slides were preincubated with 1× One Phor All buffer in 0.1% Triton X-100 in water for 30 minutes and then incubated in TdT solution for 1.5 hour at 37° C. Samples were washed in PBS and avidin biotin complex (Vector Laboratories, Burlingame, Calif.) was applied for 1 hour. Staining was detected with the diamino-benzidine chromogen after 10 minutes. Slides were counterstained with haematoxylin, dehydrated in ascending concentrations of ethanol, and fixed with xylene.

[5] = tested on: sFlt-1 expression in first trimester placental explants; test: sFlt-1 mRNA by qRT-PCR in first trimester villous explants (HIF-1 stabilization / knockdown); format: cell-based, human; conditions: 1.0 mM DMOG, explants at 20% O2; relative level normalized to 18S; 20% O2 alone 1.0±0.03; P<0.05
Protocol: as §1, with “2000).” for “2000). Explants from more than 10 different placentae in more than 15 separate experiments were used.”
Total RNA was isolated from placental samples using a Trizol-based approach according to the manufacturer's protocol (Invitrogen, CA). […] Relative quantitation of data was performed using logarithmic curves. […]

villous explants [6] = test: TGFβ treatment of first trimester villous explants: phospho-Smad2/3 and sFlt-1 (Western blot, real-time PCR); format: cell-based, human; conditions: 5 ng/mL, 24 hours
Protocol: (§2) Early onset (25-33 wks) severe IUGR with abnormal umbilical and uterine artery Doppler and from age-matched normal control tissues were collected. First trimester villous explants and BeWo and JEG-3 choriocarcinoma cell lines were cultured in standard conditions in the presence or absence of TGFβ1 or TGFβ 3 (5 ng/mL) for 24 hours. Message levels of sFlt-1 were measured by quantitative real-time PCR using specific TaqMan primers and probe. Protein expression of sFlt-1 was measured by Western blot using a polyclonal antibody against sFlt-1. In addition, protein lysates from placental tissues, explants and cells lines were analyzed with antibodies that recognize human Smad2, Smad3, Smad7 and phospho-Smad2/3.

villous explants [7] = test: TGFβ treatment of villous explants: endoglin expression; format: cell-based, human; conditions: villous explants (5-8 wks) vs. non-treated explants
Protocol: Human placental tissue from first trimester and from discordant dichorionic and monochorionic twins (n=10) and age matched normal twins (n=5) were used as physiological and pathological models of placental hypoxia. In all twins the discordancy was above 25% and absence of end diastolic velocity was documented in the growth-restricted twin. Endoglin mRNA expression was measured by quantitative PCR analysis. Protein expression was measured by Western Blot analysis using endoglin antibodies. Villous explants (5-8 wks) were used to test the effect of both oxygen and TGFβ1 and TGFβ3 on endoglin expression.

BeWo cells = test: TGFβ treatment of BeWo cells: phospho-Smad2/3 and sFlt-1 (Western blot, real-time PCR); format: cell-based, human; conditions: 5 ng/mL, 24 hours
Protocol: as §2

[8] = explants under H/R, 100 μM inhibitor in DMSO, immunoblot

Row | Molecule | p29 Mcl-1 (Mcl-1c) band / formation from Mcl-1L [1, 8] | Mcl-1S amount ([1]; explants under H/R) | Mcl-1L cleavage induced by hypoxia-reoxygenation [1] | phospho-Smad2 protein expression (villous explants [6]) | phospho-Smad3 protein expression (villous explants [6]) | sFlt-1 mRNA level (villous explants [6]) | sFlt-1 protein level (villous explants [6]) | expression of membrane endoglin (villous explants [7]) | expression of soluble endoglin (villous explants [7]) | phospho-Smad2 protein expression (BeWo cells) | phospho-Smad3 protein expression (BeWo cells) | sFlt-1 mRNA level (BeWo cells) | sFlt-1 protein level (BeWo cells) | other results
1 | COC(=O)C[C@H](NC(=O)[C@H](C)NC(=O)[C@@H](NC(=O)OCc1ccccc1)C(C)C)C(=O)CF [z-VAD-fmk] (Cbz-Val-Ala-Asp(OMe)-CH2F) | abrogated | increased | prevented | – | – | – | – | – | – | – | – | – | – | Mcl-1L content [1, 8]: restored
2 | COC(=O)CC[C@H](NC(=O)[C@H](CC(=O)OC)NC(=O)OCc1ccccc1)C(=O)N[C@H](C(=O)N[C@@H](CC(=O)OC)C(=O)CF)C(C)C [z-DEVD-fmk] | prevented | increased | prevented | – | – | – | – | – | – | – | – | – | – | –
3 | COC(=O)CNC(=O)C(=O)OC [DMOG, dimethyloxalyl-glycin] | – | – | – | – | – | – | – | – | – | – | – | – | – | explant outgrowth (villous explants [2]): typical low oxygen-induced outgrowth; sFlt-1 protein expression in trophoblast layers including EVT [3]: increased; apoptosis (TUNEL) (villous explants [4]): not likely due to an increased incidence of apoptosis; sFlt-1 mRNA expression [5]: 2.4±0.2
4 | transforming growth factor β1 [TGFβ1] | – | – | – | increased | increased | significant increase | significant increase | increased | increased | increased | increased | significant increase | significant increase | –
5 | B1 | – | – | – | increased | increased | significant increase | significant increase | increased | increased | increased | increased | significant increase | significant increase | –
